Key:
NF-κB p65 = test: Immunocytochemical analysis of NF-κB nuclear migration; assay type: cell-based; details: 2 µM, 1 h after LPS 1 µg/mL, PMA-differentiated macrophages
Procedure: To differentiate THP1-Blue™ NF-κB monocytes into macrophages, the cells were stimulated with phorbol myristate acetate (PMA) at the final concentration of 50 ng/mL, as was described previously. Cells were seeded into 8-well cell culture glass slide (SPL, Korea) at the concentration of 500,000 cells/mL, 150,000 cells per well. The compound 17 was added at the final concentration of 2 µM, and 1 h later, the cells were activated by LPS (1 µg/mL). After 1h, the culture slide was washed with PBS and fixed with 4% formaldehyde. The cells were permeabilized by 0.1% Triton X-100 (v/v; Merck) and blocked with 3% bovine serum albumin (BSA, Merck) dissolved in PBS. The primary antibody NF-κB p65 (Abcam, Cambridge, UK; product No. ab16502) at concentration 2.5 µg/mL was used for overnight incubation at 4 °C. After that, secondary anti-rabbit antibody labeled with Alexa Fluor® 488 (Cell Signaling; product No. 4412; dilution 1:1000) was added for 1 h in dark, and the nuclei were stained using 0,5 µg/mL DAPI (Merck) for 5 min. The wells were washed three-times between the mentioned steps with PBS. The coverslip was mounted with VectaShield mounting (Vector laboratories, Burlingame, CA, USA) medium and sealed with the nail polish. The nail polish was allowed to dry at 4 °C and the translocation of NF-κB was observed by fluorescence microscopy. […]

TNF-α = TNF-α secretion by LPS-stimulated PMA-differentiated THP1-Blue™ NF-κB macrophages (ELISA); assay type: cell-based, Human; details: 2 µM, LPS 1 µg/mL, 24 h
Procedure: Differentiated THP1-Blue™ NF-κB macrophages (see the chapter 3.6) were pre-treated for 1 h with 2 µM solutions of the tested compounds 8, 12, 6, 17, cinnamic acid, and prednisone dissolved in DMSO, or only the vehicle [0.1% (v/v) […] solution]. The inflammatory-like response was triggered by adding 1 μg/mL of LPS from E. coli 0111:B4 (Sigma-Aldrich) to the pre-treated macrophages; the control cells were left without LPS treatment. After 24 h, the supernatants were collected and the concentration of TNF-α was measured using a Human TNF-α ELISA Kit (Diaclone, Besançon, France), according to the manufacturer’s manual.
Figure 7 Effect of N-arylcinnamamide derivatives on the secretion of TNF-α. THP1-Blue™ NF-κB cells were differentiated to macrophages by PMA. Such cells were pretreated by compounds or PDS (2 µM) for 1 h, then LPS (1 µg/mL) was added to trigger the inflammatory signalization. Cultivation medium was collected 24 h after LPS stimulation, and the amount of TNF-α was measured by the ELISA technique. Graph represents mean ± SEM. * indicates statistical significance (p < 0.05) to DMSO group; ** indicates statistical significance (p < 0.01) to DMSO group **** indicates statistical significance (p < 0.0001) to DMSO group.

MAPKs (p38, ERK1/2, JNK) = test: Signaling pathway analysis (Western blot): phosphorylated MAPKs; assay type: cell-based; details: 2 µM, 30 min after LPS 1 µg/mL
Procedure: (§1) The level of IĸB and the amount of activated (phosphorylated) mitogen-activated protein (MAP) kinase p38, ERK1/2, and JNK was determined on the THP1-Blue™ NF-κB, in a way similar to that described previously. Briefly, cells cultivated in serum-free medium were pretreated with the tested compounds (8, 17, cinnamic acid, or prednisone) at concentration 2 µM. One hour later, 1 µg/mL of LPS was added, and after 30 min the cells were collected into ice-cold Mammalian Cell Lysis Buffer (Abcam, Cambridge, UK) with phosphatase inhibitors PhosSTOP (Roche, Mannheim, Germany). Cell lysates were centrifuged 3000 g/5 min/4 °C and supernatants were mixed with 5× Laemmli reducing buffer [250 mM Tris-HCl pH 6.8, 10% (w/v) SDS, 30% (v/v) glycerol, 5% (v/v) β-mercaptolethanol, 0.04% (w/v) bromphenol blue], and incubated at 95 °C for 5 min. […] The membranes were incubated at 4 °C for 16 h with primary anti-IĸB-α (Cell Signaling; product No. 4814; dilution 1:1,000), anti-p44/42 MAPK (ERK1/2) (Cell Signaling; product No. 9102; dilution 1:1,000), anti-phospho-p44/42 MAPK (ERK1/2) (Cell Signaling; product No. 9101; dilution 1:1,000), anti-JNK1/2/3 (Abcam; product No. ab179461; dilution 1:1,000), anti-phosho-JNK1/2/3 (Abcam; product No. ab76572; dilution 1:5,000), anti-p38 MAPK (Cell Signaling; product No. 8690; dilution 1:1,000), anti-phospho-p38 MAPK (Cell Signaling; product No. 9210; dilution 1:1,000), and anti-β-actin (Santa Cruz, Aachen, Germany; product No. sc-47778; dilution 1:5000) antibodies. […] The amount of bound secondary antibody was determined using WesternSure® PREMIUM Chemiluminescent Substrate (LI-COR, Lincoln, NE, USA). Chemiluminescence was detected using a LI-COR C-DiGit chemiluminescence imaging system (LI-COR).
(§2) Figure 6 Effect of N-arylcinnamamide derivatives on the activation of MAPKs. […] Cells were collected 30 min after LPS stimulation and selected proteins were detected by Western blot and immunodetection.

[1] = test system: transcription factor NF-κB; test: Determination of LPS-induced NF-κB activity (Quanti-Blue, SEAP reporter); assay type: cell-based
Procedure: The activity of NF-κB transcription factors was evaluated on THP1-Blue™ NF-κB cells as described previously. […] After 24 h of incubation, 20 µL of cultivation medium was mixed with 200 µL of Quanti-Blue™ medium (Invivogen) and incubated according to the manufacturer’s instructions at 37 °C for 30–40 min. The activity of NF-κB was determined as secretion of embryonic alkaline phosphatase spectrophotometrically in a Tecan Infinite M200 (Tecan, Männedorf Switzerland) at 650 nm and compared with an untreated control (100%).
Figure 3 Effect of the tested compounds on the activity of transcription factor NF-κB. THP1-Blue™ NF-κB cells were pretreated by compounds (2 µM; or 0.5 µM for 10, 11, and 13) or prednisone (PDS; 2 µM) dissolved in DMSO at indicated concentrations for 1 h. Then, lipopolysaccharide (LPS) 1 µg/mL was added to trigger the NF-κB activation. The activity of NF-κB was measured 24 h after LPS stimulation using QuantiBlue™ assay. Graph represents mean ± SEM. Red dotted line show value of DMSO-only treated group, azur dotted line CA treated group, and blue dotted line PDS treated group. ** indicates statistical significance (p < 0.01) to DMSO group; *** indicates statistical significance (p < 0.001) to DMSO group **** indicates statistical significance (p < 0.0001) to DMSO group.

THP1-Blue™ NF-κB cells = test: Cell viability determination (WST-1), 24 h; assay type: cell-based; details: WST-1, 24 h incubation, serum-free medium, three independent measurements; read-out: IC50 ± SEM, viability of THP1-Blue™ NF-κB cell line
Procedure: The cell viability was determined as was described previously. […] The final concentration of DMSO was 0.1% (v/v) in each well. Measurements were taken after 24 h incubation with the tested substances. Viability was measured by the Cell Proliferation Reagent kit WST-1 (Roche Diagnostics, Basel, Switzerland) according to the manufacturer’s manual. […] The IC50 values were calculated by four-parameter logistic (4PL) analysis from obtained viability curves.

IκBα = test: Signaling pathway analysis (Western blot): IκBα level; assay type: cell-based; details: 2 µM, 30 min after LPS 1 µg/mL
Procedure: as §1, §2

Compound: O=C(/C=C/c1ccccc1)Nc1cc(C(F)(F)F)ccc1Cl [Compound 17, (2E)-N-[2-Chloro-5-(trifluoromethyl)phenyl]-3-phenylprop-2-enamide]
- nuclear translocation of NF-κB after LPS stimulation (NF-κB p65): slightly affected
- decrease of the level of TNF-α (TNF-α): 12.4%
- effect on TNF-α production (in words) (TNF-α): decreased
- effect on MAPKs activity (MAPKs (p38, ERK1/2, JNK)): no effect
- inhibitory effect on NF-κB activity compared with prednisone (in words) ([1]; 2 µM, same concentration as prednisone): comparable with prednisone
- inhibition at 2 µM ([1]; concentration of compounds 2 µM, LPS 1 µg/mL, 24 h): 27.1%
- IC50 (THP1-Blue™ NF-κB cells): > 30 µM
- effect on IκBα levels (IκBα): no effect

— article PMC6943612, “Investigation of Anti-Inflammatory Potential of N-Arylcinnamamide Derivatives” (Molecules, 2019)
